Laboratory results reported in patent US4894219A, “Beta-agonist carbostyril derivatives, assay method and pharmacological composition” (University of Florida, priority 1988, dated 1990).
Read-outs that look alike come from different tables or passages of the source.

How the values were obtained:
[1] = system: beta-2; conditions: Yoshizaki et al, J. Med. Chem. 1977; cited from earlier work
[2] = system: adenylate cyclase; assay: Stimulation of adenylate cyclase activity in rat reticulocyte membranes; assay type: biochemical; conditions: for Intrinsic Activity, adenylate cyclase: as compared to (-)isoproterenol which was set to 1.0, 10 min; for intrinsic activity (efficacy) in words: compared with (-)isoproterenol; for EC50: rat reticulocyte membranes, mean ±SE, n = 3-6, read-out: EC50 (concentration that produced half-maximal enzyme activation), adenylate cyclase
Experimental: Biochemical Methods. Adenylate Cyclase Activity. Rat reticulocytes were induced and membranes prepared as described by Baker et al, J. Biol. Chem., Vol. 260, p. […] These are the basal conditions. […] At the end of the incubation, 0.3 ml of 10 mM Tris.HCl buffer at pH 7.0 containing 5 mM EDTA was added to each tube and the tubes were placed in a boiling water bath for 5 min. After cooling to room temperature, the tubes were centrifuged for 5 min at 10000 g and the supernatant saved. The cAMP content of the supernatant was determined by a competitive protein binding assay. The amount of cAMP present was calculated from a standard curve determined with unlabeled cAMP. […] Basal and GTP-stimulated activity values were substracted from the values obtained in the presence of ligands and the concentration of ligands that produced half-maximal activity (EC50) were determined by using a dose-effect analysis with an Apple IIe computer. Membrane protein content was determined by the Lowry method with bovine serum albumin as standard.

[3] = target: T1, beta-adrenergic receptor (Rattus norvegicus, UniProt P10608); assay: [^125 I]iodocyanopindolol (CYP) competition binding to the beta-adrenergic receptor in rat reticulocyte membranes
T1 sequence (P10608 whole entry): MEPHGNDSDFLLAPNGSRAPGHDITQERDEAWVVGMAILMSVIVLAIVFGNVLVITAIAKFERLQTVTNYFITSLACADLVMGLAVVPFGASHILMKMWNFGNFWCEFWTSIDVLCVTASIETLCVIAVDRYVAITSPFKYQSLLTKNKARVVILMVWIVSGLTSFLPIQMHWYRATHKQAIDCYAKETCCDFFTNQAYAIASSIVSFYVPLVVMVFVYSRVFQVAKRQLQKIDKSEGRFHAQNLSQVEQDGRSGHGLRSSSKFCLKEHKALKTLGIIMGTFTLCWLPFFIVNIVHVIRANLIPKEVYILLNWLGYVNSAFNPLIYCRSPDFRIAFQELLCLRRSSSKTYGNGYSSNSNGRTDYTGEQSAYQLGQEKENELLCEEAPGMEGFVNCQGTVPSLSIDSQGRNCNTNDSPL
Experimental: β-Adrenergic Receptor Binding. […] At the end of the incubation, the suspensions were diluted with 4 ml of ice-cold incubation buffer and poured onto Whatman GF/B glass fiber filters under reduced pressure. Each filter was washed with a further 8 ml of ice-cold buffer, placed in a scintillation vial, and counted. Specific binding to the receptor was calculated as the difference between total binding determined in the absence of alprenolol and the nonspecific binding determined in the presence of alprenolol. […] All data was statistically analyzed by using a one-way analysis of variance (ANOVA).

[4] = system: adenylate cyclase; assay: Time course of cAMP production in rat reticulocytes with propranolol addition (FIG. 3); assay type: biochemical; conditions: for irreversible binding and response at the beta-adrenergic receptor: conclusion from FIG. 3 and binding data; for cAMP production after propranolol added during incubation: propranolol added after 9 min ((-)isoproterenol) or 7 min (structure 13); for cAMP production, linearity with time: without propranolol
Experimental: Biochemical Methods. Adenylate Cyclase Activity. Rat reticulocytes were induced and membranes prepared as described by Baker et al, J. Biol. Chem., Vol. 260, p. 15820 (1985). […] These are the basal conditions. When stimulation of activity was measured, the assay also contained 0.5 mM GTP and varying concentrations of (-)-isoproterenol or the carbostyril derivatives. At the end of the incubation, 0.3 ml of 10 mM Tris.HCl buffer at pH 7.0 containing 5 mM EDTA was added to each tube and the tubes were placed in a boiling water bath for 5 min. After cooling to room temperature, the tubes were centrifuged for 5 min at 10000 g and the supernatant saved. The cAMP content of the supernatant was determined by a competitive protein binding assay. The amount of cAMP present was calculated from a standard curve determined with unlabeled cAMP. Enzyme activity was linear with time and protein through 10 min and 0.1 mg, respectively. Basal and GTP-stimulated activity values were substracted from the values obtained in the presence of ligands and the concentration of ligands that produced half-maximal activity (EC50) were determined by using a dose-effect analysis with an Apple IIe computer. Membrane protein content was determined by the Lowry method with bovine serum albumin as standard.

[5] = system: beta-adrenergic receptors; assay: Loss of beta-adrenergic receptors in rat tissues after i.p. injection; assay type: in vivo; conditions: for Specific Ligand Binding / % reduction of receptors from controls: 3 hr; for beta-2-receptor selectivity in vivo: receptor loss in rat tissues
Experimental: Rats were injected i.p. with either 2 or 5 mg/kg of structure (13) and 3 hr. later, the tissues were removed and assayed for the beta-adrenergic receptor content.

[6] = system: ornithine decarboxylase; assay: Induction of ornithine decarboxylase activity in the rat lung; assay type: in vivo; conditions: for Fold increase of ornithine decarboxylase activity over the basal level / Ornithine decarboxylase activity: rat lung
[7] = target: T1, beta-adrenergic receptor; assay: Washout experiment: irreversible binding after membrane pretreatment with compound 13; set-up: membranes prepared from rat reticulocytes; from tissue; host or cells: rat reticulocytes (blood cells), membranes; endogenous receptor
Experimental: In the pretreatment experiments, reticulocyte membrane protein (3 mg/ml) was incubated in 50 mM Tris·HCl buffer at pH 7.4, containing 5 mM MgCl2 without and with 20 nM compound 13 for 30 min at 32° C. A parallel incubation was also performed containing 20 nM compound 13 plus 10 μM nadolol. At the end of the incubation the tubes were filled (30 ml) with ice-cold incubation buffer and centrifuged at 48000 g for 15 min. The pellets were washed three more times by centrifugation and resuspension and the final pellets were resuspended in 1 ml of incubation buffer for assay. The membrane content of β-adrenergic receptors was determined with (-)-^125 I]-iodocyanopindolol (10-100 pM) as described above. The binding maximums and dissociation constants (KD) were determined from linear regression analysis of Scatchard plots.
Irreversible binding of compound (13) to the reticulocyte β-adrenergicreceptor was indicated by washout experiments.

[8] = listed as structure wherein X is NHCOCH2 Br
[9] = 0.1 mg/kg i.p., 3 hours, basal 1.9 + 0.4
[10] = 0.1 mg/kg plus propranolol (5 mg/kg, 30 min before)

## CC[C@H](NC(C)C)[C@H](O)c1ccc(O)c2[nH]c(=O)ccc12 (relative stereo) [procaterol, erythro-5-(1-hydroxy-2-isopropylaminobutyl)-8-hydroxycarbostyril]
[1]
  beta-2 agonist and bronchodilator activity in words: potent beta-2 agonist and a bronchodilator

## CC(C)(Cc1ccc(I)cc1)NCC(O)c1ccc(O)c2[nH]c(=O)ccc12 (stereo not drawn) [Compound 11, 5-[2-[[1-(4-Iodophenyl)-2-methylprop-2-yl]amino]-1-hydroxyethyl]-8-hydroxycarbostyril]
[2]
  Intrinsic Activity, adenylate cyclase: 1.3
  intrinsic activity (efficacy) in words: higher intrinsic activities than (-)isoproterenol
  EC50: 5.6 ± 1.4 nM
[3]
  IC50: 7.6 ± 1.3 nM

## CC(C)(Cc1ccc(N)cc1)NCC(O)c1ccc(O)c2[nH]c(=O)ccc12 (stereo not drawn) [Compound 12]
[2]
  Intrinsic Activity, adenylate cyclase: 1.0
  intrinsic activity (efficacy) in words: equal to the intrinsic activity (efficacy) of (-)isoproterenol
  EC50: 14.2 ± 4.7 nM
[3]
  IC50: 22 ± 3 nM

## CC(C)(Cc1ccc(NC(=O)CBr)cc1)NCC(O)c1ccc(O)c2nc(O)ccc12 (stereo not drawn) [Compound 13]
[2]
  Intrinsic Activity, adenylate cyclase: 1.2
  intrinsic activity (efficacy) in words: higher intrinsic activities than (-)isoproterenol
  EC50: 8.5 ± 3.5 nM
[3]
  IC50: 5.3 ± 0.8 nM
[4]
  irreversible binding and response at the beta-adrenergic receptor: irreversibly binds to the beta-adrenergic receptor and produces an irreversible response
  cAMP production after propranolol added during incubation: no change in the rate of cAMP production occurred
  cAMP production, linearity with time: linear through 14 min
[4]; [8]
  irreversible binding and response at the beta-adrenergic receptor: appears to bind irreversibly to the receptor and produce irreversible agonist effects
[4]; propranolol added with structure 13 at time 0
  cAMP production with propranolol added at time 0: stimulation of cAMP production was blocked
[5]; cerebral cortex, 5 mg/kg
  loss of receptors in words: no significant loss of receptors
[5]; cerebral cortex, 5 mg/kg i.p., control 119 ± 10
  Specific Ligand Binding: 114 ± 14 fmol/mg protein
[5]; heart or submaxillary gland, 5 mg/kg vs 2 mg/kg
  loss of receptors in words: no further loss of receptors was detected
[5]; heart, 2 mg/kg i.p.
  % reduction of receptors from controls: 23%
[5]; heart, 2 mg/kg i.p., control 22.3 ± 1.0
  Specific Ligand Binding: 17.1 ± 0.5 fmol/mg protein
[5]; heart, 5 mg/kg i.p.
  % reduction of receptors from controls: 15%
[5]; heart, 5 mg/kg i.p., control 22.3 ± 1.0
  Specific Ligand Binding: 18.9 ± 0.8 fmol/mg protein
[5]; inferred from lack of receptor loss in cerebral cortex
  blood brain barrier penetration: cannot cross the blood brain barrier
[5]; lung, 2 mg/kg i.p.
  % reduction of receptors from controls: 52%
[5]; lung, 2 mg/kg i.p., control 658 ± 27
  Specific Ligand Binding: 318 ± 23 fmol/mg protein
[5]; lung, 5 mg/kg i.p.
  % reduction of receptors from controls: 75%
[5]; lung, 5 mg/kg i.p., control 658 ± 27
  Specific Ligand Binding: 166 ± 9 fmol/mg protein
[5]
  beta-2-receptor selectivity in vivo: receptor reductions were mainly due to losses of beta-2 receptors
[5]; [8]
  beta-2-receptor selectivity in vivo: high degree of beta-2-receptor selectivity in vivo
[5]; spleen, 2 mg/kg i.p.
  % reduction of receptors from controls: 42%
[5]; spleen, 2 mg/kg i.p., control 53.2 ± 1.8
  Specific Ligand Binding: 31 ± 4 fmol/mg protein
[5]; spleen, 5 mg/kg i.p.
  % reduction of receptors from controls: 65%
[5]; spleen, 5 mg/kg i.p., control 53.2 ± 1.8
  Specific Ligand Binding: 19 ± 1.2 fmol/mg protein
[5]; submaxillary gland, 2 mg/kg i.p.
  % reduction of receptors from controls: 23%
[5]; submaxillary gland, 2 mg/kg i.p., control 98 ± 5.8
  Specific Ligand Binding: 75 ± 3 fmol/mg protein
[5]; submaxillary gland, 5 mg/kg i.p.
  % reduction of receptors from controls: 21%
[5]; submaxillary gland, 5 mg/kg i.p., control 98 ± 5.8
  Specific Ligand Binding: 77 ± 3.7 fmol/mg protein
[6]; 0.1 mg/kg i.p., 3 hours
  Fold increase of ornithine decarboxylase activity over the basal level: 4.6 fold
[6]; [9]
  Ornithine decarboxylase activity: 8.7 + 0.5 nmol CO2 Formed/g tissue/hr
[6]; [10]
  Ornithine decarboxylase activity: 0.4 ± 0.06 nmol CO2 Formed/g tissue/hr
[7]; 20 nM compound 13, four wash cycles, control 576±22, mean ±SD, n=3
  receptor concentration after pretreatment and washout: 168±15 fmol/mg of protein
[7]; 0.5 h, 20 nM compound 13, four wash cycles, read-out: decrease in the receptor concentration after pretreatment and washout
  inhibition at 0.02 µM: 71%
[7]; compound 13 treated membranes (20 nM), control 13±3, read-out: KD value for (-)-[^125 I]iodocyanopindolol binding to the remaining receptors
  Kd: 0.011 ± 0.002 nM

## CC(C)(C)NCC(O)COc1cccc2c1CC(O)C(O)C2 (stereo not drawn) [nadolol, reference compound]
[7]; nadolol 10 μM in preincubation with compound 13
  prevention of loss of specific binding sites by nadolol: the loss of specific binding sites was completely prevented

## CC(C)NCC(O)COc1cccc2ccccc12 (stereo not drawn) [propranolol]
[6]; propranolol 5 mg/kg 30 min before (-)isoproterenol or compound 13
  blocking of ornithine decarboxylase induction: completely blocked

## (-)isoproterenol [reference compound]
[2]
  Intrinsic Activity, adenylate cyclase: 1.0
  EC50: 226 ± 1.4 nM
[3]; read-out: IC50 (concentration that inhibited CYP binding by 50%), rat reticulocyte membranes, mean ±SE, n = 3-6, 60 min
  IC50: 327 ± 17 nM
[4]
  cAMP production after propranolol added during incubation: no further cAMP was produced
  cAMP production, linearity with time: linear through 14 min
[6]; 0.1 mg/kg i.p., 3 hours
  Fold increase of ornithine decarboxylase activity over the basal level: 6.5 fold
[6]; [9]
  Ornithine decarboxylase activity: 11.8 + 1.7 nmol CO2 Formed/g tissue/hr
[6]; 0.1 mg/kg i.p., 3 hours, listed as (-)Isoproterenol
  Fold increase of ornithine decarboxylase activity over the basal level: 6.2 fold
[6]; [10]
  Ornithine decarboxylase activity: 0.4 ± 0.09 nmol CO2 Formed/g tissue/hr
